The source of these data is ChEMBL document CHEMBL1145821, “Dihydrofolate reductase mutant with exceptional resistance to methotrexate but not to trimetrexate” (J Med Chem, 2003).

As usually defined, the Ki is a dissociation constant, usually derived from enzyme kinetics or from competition with a known ligand. Lower therefore signals tighter binding.

The target in test [1] is T1, Dihydrofolate reductase (Mus musculus, UniProt P00375). Nature of the test: Combined effect of active site mutation F31A and F34A on inhibitory effect for F31A/F34A murine dihydrofolate reductase (DHFR).
In test [2] the target is T2, Dihydrofolate reductase (Mus musculus, UniProt P00375).
T2 sequence (P00375 whole entry): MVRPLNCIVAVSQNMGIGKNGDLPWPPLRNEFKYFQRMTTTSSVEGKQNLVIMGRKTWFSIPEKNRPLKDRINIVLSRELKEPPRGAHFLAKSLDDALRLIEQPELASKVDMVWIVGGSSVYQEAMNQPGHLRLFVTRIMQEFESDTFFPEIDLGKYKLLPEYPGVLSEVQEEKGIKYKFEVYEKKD
Description: Inhibitory constant for F31A/F34A murine dihydrofolate reductase (DHFR).

The target of test [3] is T1, Dihydrofolate reductase. Description: Combined effect of active site mutation F31A and F34A on inhibitory effect for murine Wild-type dihydrofolate reductase (DHFR).
Test [4] concerns the target T3, Dihydrofolate reductase (Mus musculus) (UniProt P00375).
T3 sequence (whole entry): T2 sequence (P00375 whole entry)

Test [5] addresses T2, Dihydrofolate reductase. Nature of the test: Inhibitory constant for murine Wild-type dihydrofolate reductase (DHFR).

`CN(Cc1cnc2nc(N)nc(N)c2n1)c1ccc(C(=O)NC(CCC(=O)NCCCCCCCCCCCCNC(=O)CCC(NC(=O)c2ccc(N(C)Cc3cnc4nc(N)nc(N)c4n3)cc2)C(=O)O)C(=O)O)cc1` (centres undefined): the Ki·kcat/Km at Dihydrofolate reductase [1] stood at 0.112 s⁻¹; on Dihydrofolate reductase [3], 0.00126 s⁻¹. In addition, the Ki on Dihydrofolate reductase [2] turned out to be 212 nM. In test [4], this compound displayed a Kimut/Kiwt of 4410.

Take `COc1cc(NCc2ccc3nc(N)nc(N)c3c2C)cc(OC)c1OC` [TRIMETREXATE]: the Ki·kcat/Km came out at 0.00043 s⁻¹ at Dihydrofolate reductase [1] and 0.00158 s⁻¹ on Dihydrofolate reductase [3]. For the same compound, the results for the Ki on Dihydrofolate reductase [2] and at Dihydrofolate reductase [5] were 0.81 nM and 0.06 nM, respectively. The compound also had a Kimut/Kiwt in test [4] of 13.5.
